Experimental data published in PMC7156458, “Synthetic biology based construction of biological activity-related library of fungal decalin-containing diterpenoid pyrones” (Nature Communications, 2020).
Like-named read-outs stand apart in the source and are kept apart here.

Assays:
DL1 cells = experiment: cytotoxicity in Drosophila DL1 cells; format: cell-based; conditions: DL1 cells; for % viability, viability 1: replicate 1, relative to DMSO 1%; for % viability, viability 2: replicate 2, relative to DMSO 1%; for IC50: cytotoxicity
Procedure: (§1) We screened the DDPs on the Drosophila assay system for cytotoxicity, inhibitory activity of innate immune signalling and insecticidal activity. The cytotoxicity of the DDPs was evaluated using two cell lines, embryonic macrophage-derived DL1 cells[58]–[60] and larval blood cell-derived l(2)mbn cells, and their IC50 values are listed in Supplementary Table 23.

l(2)mbn cells = experiment: cytotoxicity in Drosophila l(2)mbn cells; format: cell-based; conditions: for Luminescence Raw1: replicate 1; for % viability, viability 1: replicate 1, relative to DMSO 1%; for Luminescence Raw2: replicate 2; for % viability, viability 2: replicate 2, relative to DMSO 1%; for IC50: cytotoxicity
Procedure: as §1

[1] = average of two replicates, read-out: IC50 Average
[2] = replicate 1, read-out: IC50 (1)
[3] = replicate 2, read-out: IC50 (2)

## C=C1CCC2C(C)(CCC=C(C)C)C(O)CCC2(C)C1Cc1c(O)c(C)c(C)oc1=O (centres unmarked) [Compound 4]
DL1 cells; 0.04 µM, replicate 1
  Luminescence Raw1: 2757856
DL1 cells; 0.04 µM
  % viability, viability 1: 201.087%
  % viability, viability 2: 220.707%
DL1 cells; 0.04 µM, replicate 2
  Luminescence Raw2: 3026942
DL1 cells; 0.2 µM, replicate 1
  Luminescence Raw1: 2720705
DL1 cells; 0.2 µM
  % viability, viability 1: 198.378%
  % viability, viability 2: 231.017%
DL1 cells; 0.2 µM, replicate 2
  Luminescence Raw2: 3168342
DL1 cells; 1 µM, replicate 1
  Luminescence Raw1: 2448745
DL1 cells; 1 µM
  % viability, viability 1: 178.548%
  % viability, viability 2: 197.168%
DL1 cells; 1 µM, replicate 2
  Luminescence Raw2: 2704113
DL1 cells; 4 µM, replicate 1
  Luminescence Raw1: 345570
DL1 cells; 4 µM
  % viability, viability 1: 25.197%
  % viability, viability 2: 25.1707%
DL1 cells; 4 µM, replicate 2
  Luminescence Raw2: 345209
DL1 cells; 10 µM, replicate 1
  Luminescence Raw1: 299777
DL1 cells; 10 µM
  % viability, viability 1: 21.858%
  % viability, viability 2: 24.9077%
DL1 cells; 10 µM, replicate 2
  Luminescence Raw2: 341603
DL1 cells; 20 µM, replicate 1
  Luminescence Raw1: 287878
DL1 cells; 20 µM
  % viability, viability 1: 20.9904%
  % viability, viability 2: 22.0421%
DL1 cells; 20 µM, replicate 2
  Luminescence Raw2: 302301
DL1 cells; [1]
  IC50: 1.54 µM
DL1 cells; average±SEM, read-out: IC50
  IC50: 1.54 ± 0.08 µM
DL1 cells; [2]
  IC50: 1.61 µM
DL1 cells; [3]
  IC50: 1.46 µM
l(2)mbn cells; 0.04 µM
  Luminescence Raw1: 5839335
  % viability, viability 1: 92.9944%
  Luminescence Raw2: 5201728
  % viability, viability 2: 82.8402%
l(2)mbn cells; 0.2 µM
  Luminescence Raw1: 5720253
  % viability, viability 1: 91.0979%
  Luminescence Raw2: 5444207
  % viability, viability 2: 86.7018%
l(2)mbn cells; 1 µM
  Luminescence Raw1: 5427969
  % viability, viability 1: 86.4432%
  Luminescence Raw2: 5886607
  % viability, viability 2: 93.7472%
l(2)mbn cells; 4 µM
  Luminescence Raw1: 5612720
  % viability, viability 1: 89.3854%
  Luminescence Raw2: 6637959
  % viability, viability 2: 105.713%
l(2)mbn cells; 10 µM
  Luminescence Raw1: 900951
  % viability, viability 1: 14.3481%
  Luminescence Raw2: 1318179
  % viability, viability 2: 20.9927%
l(2)mbn cells; 20 µM
  Luminescence Raw1: 296971
  % viability, viability 1: 4.729%
  Luminescence Raw2: 325456
  % viability, viability 2: 5.183%
l(2)mbn cells; [1]
  IC50: 6.44 µM
l(2)mbn cells; average±SEM, read-out: IC50
  IC50: 6.44 ± 0.94 µM
l(2)mbn cells; [2]
  IC50: 5.5 µM
l(2)mbn cells; [3]
  IC50: 7.39 µM
